Data taken from US4443436A, “C-20-Modified macrolide derivatives of the macrolide antibiotics tylosin, desmycosin, macrocin, and lactenocin” (Eli Lilly and Company, priority 1982, dated 1984).
≈ marks a conversion by molar mass, not a printed value. Where “and” joins values, the source holds several entries; their conditions need not be identical. Equal values may be shown once. Read-outs that look alike come from different tables or passages of the source.

Columns and labels:
[1] = system: Haemophilus influenzae R252; assay: MIC, standard agar-dilution assay, Haemophilus influenzae R252; assay type: cell-based; details: Haemophilus influenzae, R252
Staphylococcus aureus = assay: MIC, broth-dilution microtiter test, Staphylococcus aureus; assay type: cell-based
From the text: (§1) The MIC's in Table X were obtained using conventional broth-dilution microtiter tests.

Mycoplasma gallisepticum [2] = assay: Antimycoplasmal activity in chicks infected with Mycoplasma gallisepticum; assay type: in vivo, two- to three-day-old chicks; details: gavage five times, equivalent to 0.5 g/gal
Protocol: In these tests infections were induced in chicks by injecting 0.2 ml of a broth culture of M. gallisepticum into the abdominal air sac of two- to three-day-old chicks. The compounds were administered by gavage five times at a dose equivalent to 0.5 g/gal (on the day of challenge once prior to and once following the challenge, two times on the next day and once on the third day). Twenty-one days post-infection, the chicks were weighed, a blood sample was taken, and the chicks were sacrificed. The presence or absence of air-sac lesions was recorded.

Streptococcus bovis 80 = assay: MIC, broth-dilution microtiter test, Streptococcus bovis 80; assay type: cell-based; details: Streptococcus equinus, 80
From the text: as §1

[3] = system: Pasteurella multocida 17E; assay: MIC, broth-dilution microtiter test, Pasteurella multocida 17E; assay type: cell-based; details: Pasteurella multocida 17E; bovine isolate; broth-dilution microtiter; read-out: MIC
From the text: as §1

[4] = system: Pasteurella hemolytica 22C; assay: MIC, broth-dilution microtiter test, Pasteurella hemolytica 22C; assay type: cell-based; details: Pasteurella hemolytica 22C; broth-dilution microtiter; read-out: MIC
From the text: as §1

[5] = system: Streptococcus pneumoniae Park I; assay: microbe, parasite or virus in culture; assay type: cell-based; details: Streptococcus pneumoniae
Mycoplasma hyorhinis = assay: MIC, broth-dilution microtiter test, Mycoplasma hyorhinis; assay type: cell-based; details: Mycoplasma
From the text: as §1

[6] = system: Staphylococcus aureus X400; assay: MIC, standard agar-dilution assay, Staphylococcus aureus X400; assay type: cell-based; details: Staphylococcus aureus, X400
[7] = system: Streptococcus pyogenes C203; assay: In vivo protection of mice experimentally infected with S. pyogenes C203; details: Streptococcus pyogenes, mice, doses given 1 and 4 hours post-infection
Protocol: The C-20 modified derivatives of this invention have shown in vivo antimicrobial activity against experimentally-induced infections in laboratory animals. When two doses of test compound were administered to mice experimentally infected with S. pyogenes C203, the activity observed was measured as an ED50 value [effective dose in mg/kg to protect 50% of the test animals: see Warren Wick, et al., J. Bacteriol. 81, 233-235 (1961)].

[8] = system: Haemophilus influenzae Holt; assay: MIC, standard agar-dilution assay, Haemophilus influenzae Holt; assay type: cell-based; details: Haemophilus influenzae
[9] = system: Streptococcus pyogenes C203; assay: MIC, standard agar-dilution assay, Streptococcus pyogenes C203; assay type: cell-based; details: Streptococcus pyogenes, C203
[10] = system: Pasteurella multocida 60A; assay: MIC, broth-dilution microtiter test, Pasteurella multocida 60A; assay type: cell-based; details: Pasteurella multocida 60A; avian isolate; broth-dilution microtiter; read-out: MIC
From the text: as §1

Streptococcus Group 9960 = assay: MIC, standard agar-dilution assay, Streptococcus Group 9960; assay type: cell-based; details: GROUP9960
Pasteurella multocida [11] = assay: Subcutaneous treatment of Pasteurella multocida-infected chicks; assay type: in vivo, one-day-old chicks; details: 30 mg/kg × 2, 1 and 4 hours post-challenge
Protocol: Many of the C-20 modified derivatives of this invention have also shown in vivo antibacterial activity against infections induced by gram-negative bacteria. Tables XII and XIII summarize the results of tests in which illustrative compounds were evaluated against Pasteurella infection in one-day-old chicks. The compounds were administered parenterally or orally after challenge of the chicks with Pasteurella multocida (0.1 ml of a 10^-4 dilution of a twenty-hour tryptose broth culture of an avian P. multocida given subcutaneously). In these tests, unless indicated otherwise, all non-medicated infected chicks died within 24 hours of Pasteurella challenge. In the tests summarized in Table XII the compounds were administered by subcutaneous injection at a dosage of 30 mg/kg, 1 and 4 hours post-challenge of the chicks with P. multocida. In the test summarized in Table XIII the compounds were administered by gavage at 1 and 5 hours post-challenge of the chicks with P. multocida.

Mycoplasma gallisepticum [12] = assay: MIC, broth-dilution microtiter test, Mycoplasma gallisepticum; assay type: cell-based; details: Mycoplasmoides gallisepticum
From the text: as §1

[13] = system: Staphylococcus aureus V41; assay: MIC, standard agar-dilution assay, Staphylococcus aureus V41; assay type: cell-based; details: Staphylococcus aureus, V41
Mycoplasma synoviae = assay: MIC, broth-dilution microtiter test, Mycoplasma synoviae; assay type: cell-based; details: Mycoplasmopsis synoviae
From the text: as §1

[14] = system: Streptococcus Group D X66; assay: MIC, standard agar-dilution assay, Streptococcus Group D X66; assay type: cell-based
Pasteurella multocida [15] = assay: Oral (gavage) treatment of Pasteurella multocida-infected chicks; assay type: in vivo, one-day-old chicks
In short: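 One-day-old chicks challenged subcutaneously with 0.1 ml of a 10^-4 dilution of a 20-hour tryptose broth culture of avian P. multocida. Compounds given by subcutaneous injection at 30 mg/kg 1 and 4 hours post-challenge, or by oral gavage 1 and 5 hours post-challenge.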

Mycoplasma hyopneumoniae = assay: MIC, broth-dilution microtiter test, Mycoplasma hyopneumoniae; assay type: cell-based; details: Mesomycoplasma hyopneumoniae; Mycoplasma hyopneumoniae; broth-dilution microtiter; read-out: MIC
From the text: as §1

[16] = system: Staphylococcus aureus S13E; assay: MIC, standard agar-dilution assay, Staphylococcus aureus S13E; assay type: cell-based; details: Staphylococcus aureus, S13E
[17] = system: Staphylococcus epidermidis EPI1; assay: MIC, standard agar-dilution assay, Staphylococcus epidermidis EPI1; assay type: cell-based; details: Staphylococcus epidermidis, EPI1
[18] = system: Staphylococcus aureus X1.1; assay: MIC, standard agar-dilution assay, Staphylococcus aureus X1.1; assay type: cell-based; details: Staphylococcus aureus, X1.1
[19] = system: Staphylococcus epidermidis EPI2; assay: MIC, standard agar-dilution assay, Staphylococcus epidermidis EPI2; assay type: cell-based; details: Staphylococcus epidermidis EPI2; agar dilution; read-out: MIC
in vivo = details: dog, po, 15 mg/kg

For `CCC1OC(=O)CC(O)C(C)C(OC2OC(C)C(O)C(N(C)C)C2O)C(CC2Nc3ccccc3S2)CC(C)C(=O)C=CC(C)=CC1COC1OC(C)C(O)C(OC)C1OC` (stereo not shown) [Compound 75], the MIC [1] was 16 µg/mL (≈ 18.2 µM), the MIC (Staphylococcus aureus) was 0.78 µg/mL (≈ 0.887 µM) and the “Number with Antibodies/Number Tested” value (Mycoplasma gallisepticum [2]; antibodies to M. gallisepticum, 21 days post-infection) was 9/9. For the same compound, the Mortality (Mycoplasma gallisepticum [2]) was 1/10, the “Number with Air-Sac Lesions/Number Treated” value (Mycoplasma gallisepticum [2]; 21 days post-infection) was 3/10 and the MIC (Streptococcus bovis 80) was 3.12 µg/mL (≈ 3.55 µM). For the same compound, the MIC [3] was 25 µg/mL (≈ 28.4 µM), the MIC [4] was 25 µg/mL (≈ 28.4 µM) and the MIC [5] was 0.25 µg/mL (≈ 0.284 µM). It also gave an MIC (Mycoplasma hyorhinis) of 50 µg/mL (≈ 56.9 µM), an MIC [6] of 0.5 µg/mL (≈ 0.569 µM) and an ED50 ([7]; C203, sc, subcutaneous, read-out: ED50, Subcutaneous) of 1.7 mg/kg. It also gave an ED50 ([7]; C203, oral, read-out: ED50, Oral) of 30 mg/kg, an MIC [8] of 16 µg/mL (≈ 18.2 µM) and an MIC [9] of 0.5 µg/mL (≈ 0.569 µM). For the same compound, the MIC [10] was 25 µg/mL (≈ 28.4 µM), the MIC (Streptococcus Group 9960) was 2 µg/mL (≈ 2.27 µM) and the “Number of Deaths/Number Treated” value (Pasteurella multocida [11]) was 4/10. For the same compound, the MIC (Mycoplasma gallisepticum [12]) was 1.56 µg/mL (≈ 1.77 µM), the MIC [13] was 0.25 µg/mL (≈ 0.284 µM) and the MIC (Mycoplasma synoviae) was 1.56 µg/mL (≈ 1.77 µM). For the same compound, the MIC [14] was 2 µg/mL (≈ 2.27 µM), the “Number of Deaths/Number tested” value (Pasteurella multocida [15]; 1.0 g/gal equivalent) was 6/9 and the “Number of Deaths/Number tested” value (Pasteurella multocida [15]; 2.0 g/gal equivalent) was 3/9 and 4/10. For the same compound, the MIC (Mycoplasma hyopneumoniae) was 0.19 µg/mL (≈ 0.216 µM), the MIC [16] was 0.25 µg/mL (≈ 0.284 µM) and the MIC [17] was 0.25 µg/mL (≈ 0.284 µM). It also gave an MIC [18] of 0.25 µg/mL (≈ 0.284 µM) and an MIC [19] of 0.12 µg/mL (≈ 0.136 µM).

Compound `CCC1OC(=O)CC(O)C(C)C(OC2OC(C)C(O)C(N(C)C)C2O)C(CC=O)CC(C)C(=O)C=CC(C)=CC1COC1OC(C)C(O)C(OC)C1OC` (stereo not shown) [desmycosin] has a Cmax (in vivo) of 500 ng/mL.

Compound `CC[C@H]1OC(=O)[C@H](C)[C@@H](O[C@H]2C[C@@](C)(OC)[C@@H](O)[C@H](C)O2)[C@H](C)[C@@H](O[C@@H]2O[C@H](C)C[C@H](N(C)C)[C@H]2O)[C@](C)(O)C[C@@H](C)C(=O)[C@H](C)[C@@H](O)[C@]1(C)O` [erythromycin] has a Cmax (in vivo) of 1600 ng/mL.
